Measurements taken from patent publication US8404713B2, “Quinolinone derivatives as PARP inhibitors” (Janssen Pharmaceutica NV, priority 2007, dated 2013).
Counter-ions that a name gives are not always drawn.

Experiments:
Human PARP-1 enzyme = biological target: T1, Human PARP-1 enzyme (Homo sapiens, UniProt P09874); assay: In vitro scintillation proximity assay (SPA) for PARP-1 inhibitory activity; format: biochemical; conditions: nicked DNA activated PARP-1, [3H]-NAD+, biotinylated histones; tested between 10^-5 M and 3x10^-9 M; read-out: in vitro SPA assay PARP-1 pIC50 (converted)
T1 construct: purchased Trevigen
T1 sequence (P09874 whole entry): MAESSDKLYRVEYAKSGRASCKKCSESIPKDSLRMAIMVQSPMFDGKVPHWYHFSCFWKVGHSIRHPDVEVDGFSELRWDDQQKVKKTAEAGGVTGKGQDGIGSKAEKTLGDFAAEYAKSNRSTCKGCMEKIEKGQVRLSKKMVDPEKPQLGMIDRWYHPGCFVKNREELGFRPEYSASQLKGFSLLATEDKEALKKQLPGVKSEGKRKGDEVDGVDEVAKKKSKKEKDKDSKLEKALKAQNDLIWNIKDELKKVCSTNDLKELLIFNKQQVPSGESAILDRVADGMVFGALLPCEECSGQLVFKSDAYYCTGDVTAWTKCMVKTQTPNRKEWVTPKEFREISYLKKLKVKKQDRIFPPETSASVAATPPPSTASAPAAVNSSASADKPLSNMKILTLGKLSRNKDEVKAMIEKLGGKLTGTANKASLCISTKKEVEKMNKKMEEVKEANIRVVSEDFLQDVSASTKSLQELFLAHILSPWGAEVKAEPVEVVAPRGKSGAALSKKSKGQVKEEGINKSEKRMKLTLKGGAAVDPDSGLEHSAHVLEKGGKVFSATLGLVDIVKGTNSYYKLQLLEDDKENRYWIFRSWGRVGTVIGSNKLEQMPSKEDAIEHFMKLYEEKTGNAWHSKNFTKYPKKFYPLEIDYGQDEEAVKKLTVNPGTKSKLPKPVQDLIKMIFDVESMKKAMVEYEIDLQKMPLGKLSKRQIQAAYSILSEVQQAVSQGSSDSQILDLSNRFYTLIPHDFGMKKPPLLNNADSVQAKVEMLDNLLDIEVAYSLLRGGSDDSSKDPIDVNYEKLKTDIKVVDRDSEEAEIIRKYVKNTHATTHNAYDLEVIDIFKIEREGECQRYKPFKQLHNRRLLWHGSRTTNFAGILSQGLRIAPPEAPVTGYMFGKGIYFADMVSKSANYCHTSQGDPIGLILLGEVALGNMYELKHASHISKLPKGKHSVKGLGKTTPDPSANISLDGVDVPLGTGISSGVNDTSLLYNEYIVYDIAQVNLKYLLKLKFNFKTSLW
Protocol: C.1. In Vitro Scintillation Proximity Assay (SPA) for PARP-1 Inhibitory Activity
Compounds of the present invention were tested in an in vitro assay based on SPA technology (proprietary to GE healthcare).
In principle, the assay relies upon the well established SPA technology for the detection of poly(ADP-ribosyl)ation of biotinylated target proteins, i.e histones. This ribosylation is induced using nicked DNA activated PARP-1 enzyme and [^3H]-nicotinamide adenine dinucleotide ([^3H]-NAD^+) as ADP-ribosyl donor.
Histones (type II-A, supplier: Sigma) were biotinylated using the biotinylation kit of Amersham and stored aliquoted at −20° C. A stock solution of 100 mg/ml SPA poly(vinyl toluene) (PVT) beads (supplier: Amersham) was made in PBS. A stock solution of 61.6 nM [^3H]-NAD^+ was made by adding [^3H]-NAD^+ (0.1 mCi/ml, supplier: Perkin Elmer) to incubation buffer (50 mM Tris/HCl, pH 8; 0.2 mM DTT; 4 mM MgCl2). A solution of 4 mM NAD^+ (supplier: Sigma) was made. Human PARP-1 enzyme was obtained from Trevigen. Biotinylated histones and PVT-SPA beads were mixed and pre-incubated for 30 min. at room temperature. PARP-1 enzyme (concentration was lot dependent) was mixed with the nicked DNA and the mixture was pre-incubated for 30 min. at 4° C. Equal parts of this histones/PVT-SPA beads solution and PARP-1 enzyme/DNA solution were mixed and 75 μl of this mixture together with 1 μl of compound in DMSO and 25 μl of [^3H]-NAD^+ was added per well into a 96-well microtiterplate. The final concentrations in the incubation mixture were 2 μg/ml for the biotinylated histones, 2 mg/ml for the PVT-SPA beads, 0.25 μg/ml for the nicked DNA and between 0.1-0.2 μg/ml for the PARP-1 enzyme. After incubation of the mixture for 20 min. at room temperature, the reaction was terminated by adding 100 μl of 4 mM NAD^+ in water (final concentration 2 mM) and plates were mixed. The beads were sedimented by centrifugation (10 min, 800 rpm). and plates transferred to a TopCountNXT™ (Packard) for scintillation counting, values were expressed as counts per minute (cpm). For each experiment, controls (containing PARP-1 enzyme and DMSO without compound), a blank incubation (containing DMSO but no PARP-1 enzyme, no DNA or compound) and samples (containing PARP-1 enzyme, DNA and compound dissolved in DMSO) were run in parallel. All compounds tested were dissolved and eventually further diluted in DMSO. A dose-response curve was made wherein the compounds were tested at concentrations between 10^−5M and 3×10^−9M. In each test, the blank value was subtracted from both the control and the sample values. The control sample represented maximal PARP-1 enzyme activity. For each sample, the amount of cpm was expressed as a percentage of the mean cpm value of the controls. When appropriate, IC50-values (concentration of the drug, needed to reduce the PARP-1 enzyme activity to 50% of the control) were computed using linear interpolation between the experimental points just above and below the 50% level. Herein the effects of test compounds are expressed as pIC50 (the negative log value of the IC50-value). As a reference compound, 4-amino-1,8-naphthalimide was included to validate the SPA assay.

TANK-2 enzyme = biological target: T2, TANK-2 enzyme (Homo sapiens, UniProt Q9H2K2); assay: In vitro scintillation proximity assay (SPA) for TANK-2 inhibitory activity; format: biochemical; conditions: auto-poly(ADP-ribosyl)ation, Ni flash plates; 96-well results if available, otherwise 384-well; tested between 10^-5 M and 3x10^-8 M; read-out: in vitro SPA assay TANK-2 pIC50 (converted)
T2 construct: made in house
T2 sequence (Q9H2K2 1-1166): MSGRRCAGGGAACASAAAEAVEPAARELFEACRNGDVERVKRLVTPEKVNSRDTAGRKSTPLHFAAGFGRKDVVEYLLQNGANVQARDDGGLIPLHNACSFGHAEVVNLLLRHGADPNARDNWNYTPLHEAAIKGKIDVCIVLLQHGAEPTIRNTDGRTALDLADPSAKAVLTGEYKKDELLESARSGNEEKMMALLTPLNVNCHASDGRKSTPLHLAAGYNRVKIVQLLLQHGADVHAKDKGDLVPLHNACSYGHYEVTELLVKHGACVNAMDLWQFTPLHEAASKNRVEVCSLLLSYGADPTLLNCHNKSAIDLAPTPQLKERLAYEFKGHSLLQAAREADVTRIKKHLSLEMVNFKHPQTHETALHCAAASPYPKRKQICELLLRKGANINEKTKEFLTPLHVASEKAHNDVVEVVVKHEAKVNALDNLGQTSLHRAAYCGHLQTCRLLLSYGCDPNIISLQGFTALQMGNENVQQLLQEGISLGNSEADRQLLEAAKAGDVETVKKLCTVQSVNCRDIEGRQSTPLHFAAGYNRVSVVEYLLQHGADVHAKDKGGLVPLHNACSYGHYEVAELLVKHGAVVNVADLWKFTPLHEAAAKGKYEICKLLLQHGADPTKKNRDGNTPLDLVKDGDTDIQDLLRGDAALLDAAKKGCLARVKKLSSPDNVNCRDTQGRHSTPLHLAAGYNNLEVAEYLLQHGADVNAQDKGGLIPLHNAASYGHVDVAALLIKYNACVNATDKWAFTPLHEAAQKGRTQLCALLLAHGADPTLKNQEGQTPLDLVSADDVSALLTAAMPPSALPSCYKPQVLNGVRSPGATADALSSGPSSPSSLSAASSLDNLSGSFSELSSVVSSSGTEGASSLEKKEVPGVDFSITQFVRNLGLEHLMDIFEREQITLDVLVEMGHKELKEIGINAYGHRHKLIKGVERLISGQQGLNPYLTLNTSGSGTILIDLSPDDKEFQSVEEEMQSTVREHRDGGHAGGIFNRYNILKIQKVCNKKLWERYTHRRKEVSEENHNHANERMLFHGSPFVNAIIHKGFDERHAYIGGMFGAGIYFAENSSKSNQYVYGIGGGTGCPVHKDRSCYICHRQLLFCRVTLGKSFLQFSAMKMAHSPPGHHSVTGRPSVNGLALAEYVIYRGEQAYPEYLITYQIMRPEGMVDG
Protocol: C.2. In Vitro Scintillation Proximity Assay (SPA) for TANK-2 Inhibitory Activity
Compounds of the present invention were tested in an in vitro assay based on SPA technology with Ni Flash plates (96 or 384 well).
In principle, the assay relies upon SPA technology for the detection of auto-poly(ADP-ribosyl)ation of TANK-2 protein using [^3H]-nicotinamide adenine dinucleotide ([^3H]-NAD^+) as ADP-ribosyl donor.
A stock solution of 100 nM [^3H]-NAD^+/NAD (0.1 mCi/ml, supplier: Perkin Elmer) and 0.25 mM NAD (Sigma) was made in assay buffer (60 mM Tris/HCl, pH 7.4; 0.9 mM DTT; 6 mM MgCl2). The TANK-2 enzyme was produced as described in EP1238063. 60 μl of assay buffer, together with 1 μl of compound in DMSO, 20 μl of [^3H]-NAD^+/NAD and 20 μl of TANK-2 enzyme (final concentration 8 μg/ml) was added per well into a 96-well Ni-coated flash plate (Perkin Elmer). After incubation of the mixture for 120 min. at room temperature, the reaction was terminated by adding 60 μl of stopsolution (42.6 mg NAD in 6 ml H2O). The plates were covered with a plate sealer and placed in a TopCountNX™ (Packard) for scintillation counting. Values were expressed as counts per minute (cpm). For each experiment, controls (containing TANK-2 enzyme and DMSO without compound), a blank incubation (containing DMSO but no TANK-2 enzyme or compound) and samples (containing TANK-2 enzyme and compound dissolved in DMSO) were run in parallel. All compounds tested were dissolved and eventually further diluted in DMSO. […] In each test, the blank value was subtracted from both the control and the sample values. The control sample represented maximal TANK-2 enzyme activity. For each sample, the amount of cpm was expressed as a percentage of the mean cpm value of the controls. When appropriate, IC50-values (concentration of the drug, needed to reduce the TANK-2 enzyme activity to 50% of the control) were computed using linear interpolation between the experimental points just above and below the 50% level. Herein the effects of test compounds are expressed as pIC50 (the negative log value of the IC50-value). As reference compounds, 3-aminobenzamide and 4-amino-1,8-naphtalimide were included to validate the SPA assay. Herein the assay was described using 96-well plates. In the assay using 384-well plates the same final concentrations were used and volumes were adapted.

melting point [°C]	IC50 (Human PARP-1 enzyme) [nM]	IC50 (TANK-2 enzyme) [nM]	Compound
174			CCc1cc2ccc(CCCN3CCN(c4ccc(C#N)cn4)CC3)cc2[nH]c1=O (as salt: HCl) [Compound 8]
252	0.605	687	CCc1cc2ccc(CN3CCN(c4ccccn4)CC3)cc2[nH]c1=O [Compound 2]
184	1.24	5450	CCc1cc2ccc(CN3CCC(c4ccccc4)CC3)cc2[nH]c1=O [Compound 3]
	24.4	254	CCc1cc2ccc(CNCc3ccc(F)cc3)cc2[nH]c1=O [Compound 48]
	42.9	155	CCc1cc2ccc(CNCc3ccccc3)cc2[nH]c1=O [Compound 49]
	1.5	2800	Cc1cc2ccc(C(C)N3CCC(c4ccc(Cl)cc4)CC3)cc2[nH]c1=O (centres unmarked) [Compound 50]
	1.42	2420	Cc1cc2ccc(C(C)N3CCN(c4ccc(F)cc4F)CC3)cc2[nH]c1=O (centres unmarked) [Compound 52]
	49.8	> 10000	Cc1cc2ccc(C(C)N3CCCCC3)cc2[nH]c1=O (centres unmarked) [Compound 53]
	61.4	> 10000	Cc1cc2ccc(C(C)N3CCN(C4CCCCC4)CC3)cc2[nH]c1=O (centres unmarked) [Compound 54]
	92	> 10000	COCCNC1CCN(C(C)c2ccc3cc(C)c(=O)[nH]c3c2)CC1 (centres unmarked) [Compound 55]
	225	1920	Cc1cc2ccc(C(C)N3CCN(c4ncccc4C(F)(F)F)CC3)cc2[nH]c1=O (centres unmarked) [Compound 56]
	1.48	4220	Cc1cc2ccc(CN3CCN(c4ccccn4)CC3)cc2[nH]c1=O [Compound 57]
	95.9	2320	Cc1cc2ccc(C(C)N3CCN(c4cccc(Cl)c4)CC3)cc2[nH]c1=O (centres unmarked) [Compound 58]
	129	818	Cc1cc2ccc(C(=O)N3CC=C(c4ccccc4)CC3)cc2[nH]c1=O [Compound 59]
	116	> 10000	Cc1cc2ccc(C(=O)N3CCN(c4ccccc4Cl)CC3)cc2[nH]c1=O [Compound 60]
	5.36	4220	CCc1cc2ccc(CN3CCCC3)cc2[nH]c1=O [Compound 61]
	8.95	33	CCc1cc2ccc(CN3CCN(c4ncc(C(=O)NCCO)cn4)CC3)cc2[nH]c1=O [Compound 62]
	39.2	455	CCc1cc2ccc(CN3Cc4ccccc4C3)cc2[nH]c1=O [Compound 63]
	4070	> 10000	Cc1cc2ccc(C(C3CCCCC3)N3CCC(c4ccccc4)CC3)cc2[nH]c1=O (centres unmarked) [Compound 65]
	195	1230	Cc1cc2ccc(C(C(C)C)N3CCN(c4ccc(C#N)cn4)CC3)cc2[nH]c1=O (centres unmarked) [Compound 66]
	708	> 10000	Cc1cc2ccc(C(C3CCCCC3)N3CCN(c4ccccc4C#N)CC3)cc2[nH]c1=O (centres unmarked) [Compound 67]
	275	1910	Cc1cc2ccc(C(C3CCCCC3)N3CCN(c4ccc(C#N)cn4)CC3)cc2[nH]c1=O (centres unmarked) [Compound 70]
	4.27	1780	CCc1cc2c(OC)cc(CN3CCN(c4ccccc4Cl)CC3)cc2[nH]c1=O [Compound 71]
	≥ 10000	933	COc1ccccc1N1CCN(C(c2ccc3cc(C)c(=O)[nH]c3c2)C2CCCCC2)CC1 (centres unmarked) [Compound 72]
	6.46	1860	Cc1cc2ccc(C(C)N3CCC(c4ccccc4)CC3)cc2[nH]c1=O (centres unmarked) [Compound 74]
	309	> 10000	Cc1cc2ccc(C(C3CCCCC3)N3CCN(c4ccccn4)CC3)cc2[nH]c1=O (centres unmarked) [Compound 75]
	0.646	1550	Cc1cc2ccc(C(C)N3CCN(c4ccccc4Cl)CC3)cc2[nH]c1=O (centres unmarked) [Compound 76]

Compound	melting point [°C]	IC50 (Human PARP-1 enzyme) [nM]	IC50 (TANK-2 enzyme) [nM]
CCc1cc2ccc(CNCCc3c[nH]c4ccccc34)cc2[nH]c1=O [Compound 1]	155	13.4	1440
Cc1cc2ccc(C(C)N3CC=C(c4ccccc4)CC3)cc2[nH]c1=O (centres unmarked) [Compound 51]		1.49	1280
Cc1cc2ccc(C(C3CCCCC3)N3CC=C(c4ccccc4)CC3)cc2[nH]c1=O (centres unmarked) [Compound 73]		1290	646
